Experimental data taken from PMC5779714, “Metallochaperone UreG serves as a new target for design of urease inhibitor: A novel strategy for development of antimicrobials” (PLoS Biology, 2018).
Where “and” joins values, the source holds several entries; their conditions need not be identical. Equal values may be shown once. Read-outs that look alike come from different tables or passages of the source.

Assays:
urease [1] = target: T1, urease (Proteus mirabilis, UniProt P17086+P17087+P17088); assay type: biochemical
T1 construct: endogenous in cells
T1 sequence (P17087 whole entry): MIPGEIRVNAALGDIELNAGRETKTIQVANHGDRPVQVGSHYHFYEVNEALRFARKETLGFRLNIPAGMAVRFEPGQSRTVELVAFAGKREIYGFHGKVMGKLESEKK
T1 sequence (P17088 whole entry): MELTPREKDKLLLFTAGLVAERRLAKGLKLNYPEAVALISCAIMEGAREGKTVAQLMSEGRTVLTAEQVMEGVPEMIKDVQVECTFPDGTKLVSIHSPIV
T1 sequence (P17086 whole entry): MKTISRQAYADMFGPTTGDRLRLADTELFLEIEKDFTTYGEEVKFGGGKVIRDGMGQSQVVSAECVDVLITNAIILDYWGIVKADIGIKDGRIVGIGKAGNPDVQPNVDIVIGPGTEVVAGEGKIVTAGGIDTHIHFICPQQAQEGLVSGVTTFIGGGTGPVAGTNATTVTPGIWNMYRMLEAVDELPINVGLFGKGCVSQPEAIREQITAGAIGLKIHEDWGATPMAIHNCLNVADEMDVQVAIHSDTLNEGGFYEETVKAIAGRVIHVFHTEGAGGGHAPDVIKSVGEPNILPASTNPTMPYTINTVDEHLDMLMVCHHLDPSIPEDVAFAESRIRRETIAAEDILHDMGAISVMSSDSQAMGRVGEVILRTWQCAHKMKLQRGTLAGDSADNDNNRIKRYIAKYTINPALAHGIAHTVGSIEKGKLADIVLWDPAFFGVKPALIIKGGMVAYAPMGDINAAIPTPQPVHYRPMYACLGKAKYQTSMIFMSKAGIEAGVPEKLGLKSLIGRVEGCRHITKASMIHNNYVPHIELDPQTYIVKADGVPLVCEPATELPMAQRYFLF

urease [2] = target: T2, urease (Pseudomonas aeruginosa, UniProt Q9HUU5+Q9HUU6+Q9HUU8); assay: Urease activity of extracted P. aeruginosa urease (in vitro); assay type: biochemical
T2 construct: endogenous in cells
T2 sequence (Q9HUU6 whole entry): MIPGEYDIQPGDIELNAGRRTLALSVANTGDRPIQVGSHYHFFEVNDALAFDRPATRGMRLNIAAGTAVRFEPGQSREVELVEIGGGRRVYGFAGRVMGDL
T2 sequence (Q9HUU5 whole entry): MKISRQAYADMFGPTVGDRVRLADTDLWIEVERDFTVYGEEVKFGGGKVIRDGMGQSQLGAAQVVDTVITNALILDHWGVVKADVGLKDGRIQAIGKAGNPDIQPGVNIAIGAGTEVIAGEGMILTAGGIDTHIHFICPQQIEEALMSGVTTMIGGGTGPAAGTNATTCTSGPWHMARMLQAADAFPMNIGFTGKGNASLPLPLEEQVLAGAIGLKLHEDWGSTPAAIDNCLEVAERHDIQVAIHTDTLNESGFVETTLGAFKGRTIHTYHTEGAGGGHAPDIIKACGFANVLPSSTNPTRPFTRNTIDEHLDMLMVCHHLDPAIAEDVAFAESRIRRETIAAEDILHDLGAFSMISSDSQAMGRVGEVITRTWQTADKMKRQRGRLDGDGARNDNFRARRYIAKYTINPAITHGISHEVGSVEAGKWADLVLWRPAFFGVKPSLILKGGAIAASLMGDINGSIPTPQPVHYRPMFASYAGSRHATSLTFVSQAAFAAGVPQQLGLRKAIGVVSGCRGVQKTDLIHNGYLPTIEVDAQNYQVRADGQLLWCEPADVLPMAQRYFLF
T2 sequence (Q9HUU8 whole entry): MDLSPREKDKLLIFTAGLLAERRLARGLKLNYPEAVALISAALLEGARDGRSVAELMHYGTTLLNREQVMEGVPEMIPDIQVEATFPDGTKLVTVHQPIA

urease [3] = tested on: urease
urease [4] = tested on: urease; remark: listed apart in the source
urease [5] = tested on: urease; remark: listed apart in the source
H. pylori urease [6] = target: H. pylori urease (Helicobacter pylori, UniProt P14916+P69996); assay type: biochemical; design: endogenous in cells; host or cells: H. pylori strain 26695 or a clinical isolate
Chain of H. pylori urease (Helicobacter pylori, UniProt P14916+P69996) (P69996 whole entry): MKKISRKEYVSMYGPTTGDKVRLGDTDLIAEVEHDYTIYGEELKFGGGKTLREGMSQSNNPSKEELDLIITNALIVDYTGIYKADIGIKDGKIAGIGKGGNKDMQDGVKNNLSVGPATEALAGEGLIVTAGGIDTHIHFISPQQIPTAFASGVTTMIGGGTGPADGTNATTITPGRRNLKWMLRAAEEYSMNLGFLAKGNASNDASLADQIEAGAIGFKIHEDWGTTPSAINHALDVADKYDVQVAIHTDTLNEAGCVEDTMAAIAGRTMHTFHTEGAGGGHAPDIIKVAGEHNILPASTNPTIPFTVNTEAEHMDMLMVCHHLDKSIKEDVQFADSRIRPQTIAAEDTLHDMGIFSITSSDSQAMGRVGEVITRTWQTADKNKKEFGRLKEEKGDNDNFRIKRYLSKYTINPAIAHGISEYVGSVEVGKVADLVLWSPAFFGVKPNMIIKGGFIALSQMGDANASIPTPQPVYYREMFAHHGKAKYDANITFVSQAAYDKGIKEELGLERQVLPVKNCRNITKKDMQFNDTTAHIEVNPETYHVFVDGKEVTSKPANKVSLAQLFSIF
Chain of H. pylori urease (Helicobacter pylori, UniProt P14916+P69996) (P14916 whole entry): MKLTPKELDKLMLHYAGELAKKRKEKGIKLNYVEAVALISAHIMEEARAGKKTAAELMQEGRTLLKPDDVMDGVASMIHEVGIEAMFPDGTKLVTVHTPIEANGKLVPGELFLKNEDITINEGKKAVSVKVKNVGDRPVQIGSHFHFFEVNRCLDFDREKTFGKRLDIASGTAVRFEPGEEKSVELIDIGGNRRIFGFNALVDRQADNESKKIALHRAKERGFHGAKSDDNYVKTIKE

[7] = tested on: AGS cells with H. pylori infection; assay: AGS cells with H. pylori infection, inhibitors administrated to the AGS cells (S20 Fig); assay type: cell-based, human; conditions: 10 μM administrated to AGS cells with H. pylori infection
Description: As expected, low viability of AGS with the supplement of cmpd4 and cmpd8 was observed due to the toxicity of small compounds to mammalian cells. […] (PNG) Click here for additional data file.

urease [8] = tested on: urease; remark: listed apart in the source
[9] = tested on: AGS cells exposed to H. pylori; assay: Cell infection model: AGS cells exposed to H. pylori pre-cultured with inhibitors; assay type: cell-based, human; conditions: H. pylori pre-cultured with 10 μM inhibitor 24 h; MOI 20; 24 h infection; Hp alone 28.8%
UreG = UreG (Helicobacter pylori, UniProt Q09066); assay: Fluorescence-quenching titration of UreG (Kd); assay type: binding, H. pylori
Chain of UreG (Q09066 whole entry): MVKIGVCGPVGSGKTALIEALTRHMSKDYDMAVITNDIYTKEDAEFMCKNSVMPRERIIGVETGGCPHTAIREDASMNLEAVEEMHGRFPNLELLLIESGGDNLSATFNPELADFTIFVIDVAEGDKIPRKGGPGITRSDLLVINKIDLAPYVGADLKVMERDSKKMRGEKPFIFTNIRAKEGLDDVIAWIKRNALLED
Procedure: Using the relation between the emission intensity at 310 nm and molecule-UreG–bound species, as well as one site-binding model, the Kd values were calculated by a logistic regression model referring to a previous report. […] All fluorescence readings were corrected for the dilution effect.

H. pylori urease [10] = conditions: for Normalized urease activity(%): 40 min
Description: The starting sample with 20% urease activity was used. […] Because zero is not defined on a log scale, the blank values have been entered as 0.1.

CC(=O)NO [AHA, acetohydroxamic acid] was tested, and the “Normalized urease activity(%)” value (urease [1]; log(AHA[μM]) 1.29073) was 83.9311%, the “Normalized urease activity(%)” value (urease [1]; log(AHA[μM]) 1.59176) was 78.3381% and the “Normalized urease activity(%)” value (urease [1]; log(AHA[μM]) 1.89279) was 61.9141%. The “Normalized urease activity(%)” value (urease [1]; log(AHA[μM]) 2.19382) was 45.934%, the “Normalized urease activity(%)” value (urease [1]; log(AHA[μM]) 2.49485) was 31.2855% and the “Normalized urease activity(%)” value (urease [1]; log(AHA[μM]) 2.79588) was 25.6037%. The “Normalized urease activity(%)” value (urease [1]; log(AHA[μM]) 3.09691) was 17.6136%, the “Normalized urease activity(%)” value (urease [1]; log(AHA[μM]) 3.39794) was 16.1932% and the “Normalized urease activity(%)” value (urease [1]; log(AHA[μM]) 3.69897) was 12.3757%. For the same compound, the “Normalized urease activity(%)” value (urease [1]; log(AHA[μM]) 4) was 7.315%, the “Normalized urease activity(%)” value (urease [2]; log(AHA[μM]) 1.79588) was 78.186% and the “Normalized urease activity(%)” value (urease [2]; log(AHA[μM]) 2.09691) was 95.4076%. The “Normalized urease activity(%)” value (urease [2]; log(AHA[μM]) 2.39794) was 91.1022%, the “Normalized urease activity(%)” value (urease [2]; log(AHA[μM]) 2.69897) was 92.2503% and the “Normalized urease activity(%)” value (urease [2]; log(AHA[μM]) 3) was 91.3892%. For the same compound, the “Normalized urease activity(%)” value (urease [2]; log(AHA[μM]) 3.30103) was 81.0563%, the “Normalized urease activity(%)” value (urease [2]; log(AHA[μM]) 3.60206) was 50.3444% and the “Normalized urease activity(%)” value (urease [2]; log(AHA[μM]) 3.90309) was 18.7715%. For the same compound, the “Normalized urease activity(%)” value (urease [2]; log(AHA[μM]) 4.20412) was 5.568%, the “Normalized urease activity(%)” value (urease [2]; log(AHA[μM]) 4.50515) was 3.846% and the “Normalized urease activity(%)” value (urease [3]; log(AHA[μM]) 1.39794) was 85.3556%. For the same compound, the “Normalized urease activity(%)” value (urease [3]; log(AHA[μM]) 2.09691) was 97.9079%, the “Normalized urease activity(%)” value (urease [3]; log(AHA[μM]) 2.39794) was 94.4212% and the “Normalized urease activity(%)” value (urease [3]; log(AHA[μM]) 2.69897) was 97.2106%. For the same compound, the “Normalized urease activity(%)” value (urease [3]; log(AHA[μM]) 3) was 105.579%, the “Normalized urease activity(%)” value (urease [3]; log(AHA[μM]) 3.30103) was 100% and the “Normalized urease activity(%)” value (urease [3]; log(AHA[μM]) 3.60206) was 74.198%. The “Normalized urease activity(%)” value (urease [3]; log(AHA[μM]) 3.90309) was 38.6332%, the “Normalized urease activity(%)” value (urease [3]; log(AHA[μM]) 4.20412) was 16.318% and the “Normalized urease activity(%)” value (urease [3]; log(AHA[μM]) 4.50515) was 9.344%. For the same compound, the “Normalized urease activity(%)” value (urease [4]; log(AHA[μM]) 1.79588) was 92.5521%, the “Normalized urease activity(%)” value (urease [4]; log(AHA[μM]) 2.09691) was 93.0486% and the “Normalized urease activity(%)” value (urease [4]; log(AHA[μM]) 2.39794) was 89.0764%. For the same compound, the “Normalized urease activity(%)” value (urease [4]; log(AHA[μM]) 2.69897) was 86.0973%, the “Normalized urease activity(%)” value (urease [4]; log(AHA[μM]) 3) was 82.6216% and the “Normalized urease activity(%)” value (urease [4]; log(AHA[μM]) 3.30103) was 72.6911%. For the same compound, the “Normalized urease activity(%)” value (urease [4]; log(AHA[μM]) 3.60206) was 51.3406%, the “Normalized urease activity(%)” value (urease [4]; log(AHA[μM]) 3.90309) was 15.0943% and the “Normalized urease activity(%)” value (urease [4]; log(AHA[μM]) 4.20412) was 3.674%. The “Normalized urease activity(%)” value (urease [4]; log(AHA[μM]) 4.50515) was 1.688%, the “Normalized urease activity(%)” value (urease [5]; log(AHA[μM]) 1.79588) was 82.0618% and the “Normalized urease activity(%)” value (urease [5]; log(AHA[μM]) 2.09691) was 76.8393%. The “Normalized urease activity(%)” value (urease [5]; log(AHA[μM]) 2.39794) was 67.9837%, the “Normalized urease activity(%)” value (urease [5]; log(AHA[μM]) 2.69897) was 58.901% and the “Normalized urease activity(%)” value (urease [5]; log(AHA[μM]) 3) was 52.7702%. For the same compound, the “Normalized urease activity(%)” value (urease [5]; log(AHA[μM]) 3.30103) was 45.277%, the “Normalized urease activity(%)” value (urease [5]; log(AHA[μM]) 3.60206) was 27.5659% and the “Normalized urease activity(%)” value (urease [5]; log(AHA[μM]) 3.90309) was 11.6712%. The “Normalized urease activity(%)” value (urease [5]; log(AHA[μM]) 4.20412) was 3.951%, the “Normalized urease activity(%)” value (urease [5]; log(AHA[μM]) 4.50515) was 2.589% and the IC50 (H. pylori urease [6]; AHA incubated with extracted urease, ± SD) was 1320 ± 291 µM. The “Normalized urease activity(%) (AHA)” value (H. pylori urease [6]; AHA log[μM] 1.89279) was 109.4% and 109.395%, the “Normalized urease activity(%) (AHA)” value (H. pylori urease [6]; AHA log[μM] 2.19382) was 96.0% and 96.0334% and the “Normalized urease activity(%) (AHA)” value (H. pylori urease [6]; AHA log[μM] 2.49485) was 91.9% and 91.858%. The “Normalized urease activity(%) (AHA)” value (H. pylori urease [6]; AHA log[μM] 2.79588) was 93.3% and 93.3194%, the “Normalized urease activity(%) (AHA)” value (H. pylori urease [6]; AHA log[μM] 3.09691) was 51.1% and 51.1482% and the “Normalized urease activity(%) (AHA)” value (H. pylori urease [6]; AHA log[μM] 3.39794) was 20.5% and 20.4593%. For the same compound, the “Normalized urease activity(%) (AHA)” value (H. pylori urease [6]; AHA log[μM] 3.69897) was 2.7% and 2.714%, the “Normalized urease activity(%) (AHA)” value (H. pylori urease [6]; AHA log[μM] 4) was 1.3% and 1.253% and the “Normalized urease activity(%) (AHA)” value (H. pylori urease [6]; AHA log[μM] 4.30103) was 1.3% and 1.253%. For the same compound, the “Ammonia in medium” value [7] was 2.273 mM, the “Normalized cell survival (%)” value [7] was 14.4144% and the “Normalized urease activity(%)” value (urease [8]; log(AHA[μM]) 1.79588) was 92.1939%. For the same compound, the “Normalized urease activity(%)” value (urease [8]; log(AHA[μM]) 2.09691) was 91.7831%, the “Normalized urease activity(%)” value (urease [8]; log(AHA[μM]) 2.39794) was 89.7288% and the “Normalized urease activity(%)” value (urease [8]; log(AHA[μM]) 2.69897) was 88.9071%. The “Normalized urease activity(%)” value (urease [8]; log(AHA[μM]) 3) was 90.1397%, the “Normalized urease activity(%)” value (urease [8]; log(AHA[μM]) 3.30103) was 80.6902% and the “Normalized urease activity(%)” value (urease [8]; log(AHA[μM]) 3.60206) was 55.6286%. The “Normalized urease activity(%)” value (urease [8]; log(AHA[μM]) 3.90309) was 27.691%, the “Normalized urease activity(%)” value (urease [8]; log(AHA[μM]) 4.20412) was 14.1331% and the “Normalized urease activity(%)” value (urease [8]; log(AHA[μM]) 4.50515) was 10.8463%. For the same compound, the “Normalized cell survival (%)” value [9] was 40.5% ± 8.2% and 40.5405%.
Nc1nc2c(ncn2[C@@H]2O[C@H](COP(=O)(O)OP(=O)(O)OP(=O)(O)O)[C@@H](O)[C@H]2O)c(=O)[nH]1 [GTP, guanosine-5'-triphosphate, reference compound] was tested, and the Kd (UreG) was roughly 65 µM, the “fluorescence intensity (a.u.)” value (UreG; log(ligand[μM]) 0) was 3320 a.u and the “fluorescence intensity (a.u.)” value (UreG; log(ligand[μM]) 0.30103) was 3210 a.u. For the same compound, the “fluorescence intensity (a.u.)” value (UreG; log(ligand[μM]) 0.60206) was 2994.67 a.u, the “fluorescence intensity (a.u.)” value (UreG; log(ligand[μM]) 0.90309) was 2943.33 a.u and the “fluorescence intensity (a.u.)” value (UreG; log(ligand[μM]) 1.20412) was 2860.67 a.u. The “fluorescence intensity (a.u.)” value (UreG; log(ligand[μM]) 1.50515) was 2655 a.u, the “fluorescence intensity (a.u.)” value (UreG; log(ligand[μM]) 1.80618) was 2320.33 a.u and the “fluorescence intensity (a.u.)” value (UreG; log(ligand[μM]) 2.10721) was 1866.33 a.u. The “fluorescence intensity (a.u.)” value (UreG; log(ligand[μM]) -1.30103) was 3394.33 a.u.
[Ni+2] [Ni] was tested, and the “Normalized urease activity(%)” value (H. pylori urease [10]; supplement 0.05 (head prints CBS(μM )), starting sample 20% activity) was 19.0%, the “Normalized urease activity(%)” value (H. pylori urease [10]; supplement 0.1 (head prints CBS(μM ))) was 18.6% and the “Normalized urease activity(%)” value (H. pylori urease [10]; supplement 0.2 (head prints CBS(μM ))) was 18.3%. For the same compound, the “Normalized urease activity(%)” value (H. pylori urease [10]; supplement 0.4 (head prints CBS(μM ))) was 17.5% and the “restoration of urease activity” value (H. pylori urease [10]; supplemented to CBS-treated bacterial cell lysate) was “failed to restore the urease activity completely”.
